How the values were obtained:
Type in all cases: binding
[1] = tested on: human monoclonal antibody CRJB
[2] = tested on: human monoclonal antibody CRJA
[3] = tested on: human monoclonal antibody CR57
[4] = tested on: human monoclonal antibody CR57; remark: listed apart in the source
[5] = tested on: human monoclonal antibody CRJB; remark: listed apart in the source
[6] = tested on: human monoclonal antibody CRJA; remark: listed apart in the source

| Sequence | Binding of CRJB (10 μg/ml) to looped/cyclic peptide (PEPSCAN-ELISA) [1] | Binding of CRJA to linear peptide (PEPSCAN-ELISA signal) [2] | Binding of CR57 (10 μg/ml) to looped/cyclic peptide (PEPSCAN-ELISA) [3] | Binding of CR57 to linear peptide (PEPSCAN-ELISA signal) [4] | Binding of CRJB to linear peptide (PEPSCAN-ELISA signal) [5] | Binding of CRJA (10 μg/ml) to looped/cyclic peptide (PEPSCAN-ELISA) [6] | Binding of CRJB (10 μg/ml) to looped/cyclic peptide (PEPSCAN-ELISA signal) [1] | Binding of CR57 (10 μg/ml) to looped/cyclic peptide (PEPSCAN-ELISA signal) [3] | Binding of CRJA (10 μg/ml) to looped/cyclic peptide (PEPSCAN-ELISA signal) [6] | Binding of CRJB to looped/cyclic peptide (PEPSCAN-ELISA signal) [1] | Binding of human monoclonal antibody CRJA to linear peptide (PEPSCAN-ELISA signal) [2] | Binding of CR57 to looped/cyclic peptide (PEPSCAN-ELISA signal) [3] | Binding of human monoclonal antibody CR57 to linear peptide (PEPSCAN-ELISA signal) [4] | Binding of human monoclonal antibody CRJB to linear peptide (PEPSCAN-ELISA signal) [5] | Binding of CRJA to looped/cyclic peptide (PEPSCAN-ELISA signal) [6] |
| --- | --- | --- | --- | --- | --- | --- | --- | --- | --- | --- | --- | --- | --- | --- | --- |
| PPDQLVNLHDFRSDE | 83 | 118 | 101 | 107 | 120 | 97 | – | – | – | – | – | – | – | – | – |
| PRLGMSCDIFTNSRG | – | 108 | – | 72 | 112 | – | 89 | 87 | 96 | – | – | – | – | – | – |
| PRYEESLHNPYPDYR | – | 103 | – | 73 | 115 | – | 79 | 92 | 99 | – | – | – | – | – | – |
| PSGKCSGVAVSSTYC | – | 106 | – | 56 | 112 | – | 48 | 58 | 73 | – | – | – | – | – | – |
| PSKGCLRVGGRCHPH | 99 | 78 | 92 | 69 | 138 | 71 | – | – | – | – | – | – | – | – | – |
| PSTVFKDGDEAEDFV | – | – | – | – | – | – | – | – | – | 101 | 105 | 118 | 104 | 143 | 113 |
| PSVADLDPYDRSLHS | – | 72 | – | 44 | 114 | – | 33 | 57 | 62 | – | – | – | – | – | – |
| PTPDACRAAYNWKMA | – | 129 | – | 99 | 125 | – | 112 | 114 | 136 | – | – | – | – | – | – |
| PWSPIDIHHLSCPNN | – | 76 | – | 62 | 104 | – | 75 | 93 | 91 | – | – | – | – | – | – |
| PYDRSLHSRVFPSGK | – | 104 | – | 86 | 120 | – | 90 | 134 | 113 | – | – | – | – | – | – |
| PYPDYRWLRTVKTTK | – | 84 | – | 65 | 93 | – | 92 | 88 | 76 | – | – | – | – | – | – |
| QHMELLESSVIPLVH | 97 | 87 | 132 | 98 | 146 | 111 | – | – | – | – | – | – | – | – | – |
| QLVNLHDFRSDEIEH | 44 | 89 | 47 | 60 | 113 | 66 | – | – | – | – | – | – | – | – | – |
| QQHMELLESSVIPLV | 92 | 100 | 141 | 103 | 134 | 94 | – | – | – | – | – | – | – | – | – |
| QSSLLQQHMELLESS | 85 | 98 | 97 | 82 | 114 | 99 | – | – | – | – | – | – | – | – | – |
| QTSNETKWCPPDQLV | 62 | 90 | 118 | 92 | 120 | 106 | – | – | – | – | – | – | – | – | – |
| RAAYNWKMAGDPRYE | – | 92 | – | 90 | 130 | – | 101 | 141 | 86 | – | – | – | – | – | – |
| RASKGSETCGFVDER | 90 | 90 | 105 | 86 | 110 | 100 | – | – | – | – | – | – | – | – | – |
| RCHPHVNGVFFNGII | 100 | 108 | 104 | 98 | 141 | 106 | – | – | – | – | – | – | – | – | – |
| REECLDALESIMTTK | 79 | 94 | 89 | 94 | 110 | 92 | – | – | – | – | – | – | – | – | – |
| RGKRASKGSETCGFV | 68 | 87 | 101 | 75 | 104 | 102 | – | – | – | – | – | – | – | – | – |
| RGLYKSLKGACKLKL | 96 | 107 | 96 | 90 | 121 | 113 | – | – | – | – | – | – | – | – | – |
| RKHFRPTPDACRAAY | – | 57 | – | 64 | 107 | – | 79 | 72 | 41 | – | – | – | – | – | – |
| RKLVPGFGKAYTIFN | 79 | 48 | 52 | 47 | 115 | 44 | – | – | – | – | – | – | – | – | – |
| RKREECLDALESIMT | 96 | 96 | 132 | 73 | 110 | 129 | – | – | – | – | – | – | – | – | – |
| RLGMSCDIFTNSRGK | – | 92 | – | 88 | 106 | – | 104 | 105 | 110 | – | – | – | – | – | – |
| RLMDGTWVAMQTSNE | 89 | 99 | 96 | 100 | 113 | 82 | – | – | – | – | – | – | – | – | – |
| RLSHLRKLVPGFGKA | 111 | 93 | 111 | 93 | 123 | 106 | – | – | – | – | – | – | – | – | – |
| RPTPDACRAAYNWKM | – | 123 | – | 77 | 101 | – | 51 | 76 | 96 | – | – | – | – | – | – |
| RRLSHLRKLVPGFGK | 88 | 85 | 111 | 92 | 143 | 96 | – | – | – | – | – | – | – | – | – |
